Data as given in US12336981B2, “Compounds and compositions for the inhibition of NAMPT” (Valo Health, Inc., priority 2010, dated 2025).
Where two headings read alike, the source gives them in different places.

Key:
NAMPT = target: T1, NAMPT (Homo sapiens, UniProt P43490); test: Biochemical inhibition assay: NAMPT enzymatic reaction, NMN quantified by mass spectrometry; conditions: read-out: Biochem IC50
T1 construct: His tag; host or cells: E. coli
Summary of the method: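 Inhibition of E. coli-expressed His-tagged human NAMPT, measured as NMN formation by mass spectrometry after a 30 min room-temperature reaction containing 1 μM NAM, 100 μM PRPP and 2.5 mM ATP.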

A2780 cells = test: In-vitro cell proliferation assay (SRB), A2780 cells; type: cell-based; conditions: Homo sapiens, A2780, 72 h, A2780 cells, 72 hours, read-out: A2780 IC50
Summary of the method: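 Cells were plated overnight at 37° C., 5% CO2, then exposed to serially diluted compounds (0.1% DMSO final) for 72 hours. Viable cells were measured by sulforhodamine B staining after TCA fixation, read at 570 nm; media-only background was subtracted before % inhibition was calculated.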

T1 sequence (P43490 whole entry): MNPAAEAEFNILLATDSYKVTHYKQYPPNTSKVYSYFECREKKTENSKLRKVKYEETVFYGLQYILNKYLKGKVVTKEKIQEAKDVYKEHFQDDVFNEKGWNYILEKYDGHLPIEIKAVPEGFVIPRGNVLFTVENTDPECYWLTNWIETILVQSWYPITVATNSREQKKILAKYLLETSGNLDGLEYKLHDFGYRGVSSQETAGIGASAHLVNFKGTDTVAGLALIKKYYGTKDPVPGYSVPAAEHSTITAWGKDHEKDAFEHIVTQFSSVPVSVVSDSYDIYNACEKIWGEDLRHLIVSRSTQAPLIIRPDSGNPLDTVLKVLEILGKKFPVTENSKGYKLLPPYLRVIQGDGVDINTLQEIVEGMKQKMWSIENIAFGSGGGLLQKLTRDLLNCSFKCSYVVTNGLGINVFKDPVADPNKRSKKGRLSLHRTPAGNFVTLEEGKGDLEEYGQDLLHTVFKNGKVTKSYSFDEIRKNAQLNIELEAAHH

Compound	IC50 (NAMPT; NAMPT enzymatic reaction) [nM]	IC50 (A2780 cells; SRB assay) [nM]	IC50 (A2780 cells; SRB) [nM]	IC50 (NAMPT; NAMPT enzymatic assay) [nM]
O=C(NCc1ccc(S(=O)(=O)c2ccccc2)cc1)c1cc(-c2ccccn2)n[nH]1 [N-{[4-(benzenesulfonyl)phenyl]methyl}-3-(pyridin-2-yl)-1H-pyrazole-5-carboxamide]	7430	23400	–	–
Cc1cc(C)c(S(=O)(=O)c2ccc(CNC(=O)c3cc4ccncc4o3)cc2)c(C)c1	59.2	–	100 to 1000	–
Cc1cc(Cl)ccc1S(=O)(=O)c1ccc(CNC(=O)c2cc3ccncc3o2)cc1 [N-({4-[(4-chloro-2-methylbenzene)sulfonyl]phenyl}methyl)furo[2,3-c]pyridine-2-carboxamide]	24.9	–	64.7	–
COc1cc(C)cc(OC)c1S(=O)(=O)c1ccc(CNC(=O)c2cc3ccncc3o2)cc1 [N-({4-[(2,6-dimethoxy-4-methylbenzene)sulfonyl]phenyl}methyl)furo[2,3-c]pyridine-2-carboxamide]	5	–	23	–
Cc1cc(Cl)cnc1S(=O)(=O)c1ccc(CNC(=O)c2ccc3nccn3c2)cc1 [N-{[4-(5-chloro-3-methylpyridine-2-sulfonyl)phenyl]methyl}imidazo[1,2-a]pyridine-6-carboxamide]	–	–	8	18.8
CCCOc1ccc(S(=O)(=O)c2ccc(CNC(=O)c3ccc4nccn4c3)cc2)cc1	6.1	–	1.9	–
Cn1ncc2c(S(=O)(=O)c3ccc(CNC(=O)c4cc5ccncc5o4)cc3)cccc21 [N-{[4-(1-methyl-1H-indazole-4-sulfonyl)phenyl]methyl}furo[2,3-c]pyridine-2-carboxamide]	–	–	3.6	9.2
CC(C)NC(=O)c1cc(S(=O)(=O)c2ccc(CNC(=O)c3cnc4nccn4c3)cc2)ccc1F	–	–	85.4	7.7
O=C(NCc1ccc(S(=O)(=O)c2ccc(C(F)(F)F)c(Cl)c2)cc1)c1cc2cnccc2[nH]1	–	–	7.7	13.3
COc1c(C)cc(S(=O)(=O)c2ccc(CNC(=O)c3ccc4nccn4c3)cc2)cc1C	14.6	–	1.4	–
O=C(NCc1ccc(S(=O)(=O)c2ccc(C(F)F)c(F)c2)cc1)c1cnc2nccn2c1 [N-[(4-{[4-(difluoromethyl)-3-fluorobenzene]sulfonyl}phenyl)methyl]imidazo[1,2-a]pyrimidine-6-carboxamide]	–	–	27.9	8.2
COc1cc(S(=O)(=O)c2ccc(CNC(=O)c3cc4cnccc4[nH]3)cc2)ccc1Cl	5.5	–	3.6	–
COc1ccc(S(=O)(=O)c2ccc(CNC(=O)c3cc4cnccc4[nH]3)cc2)cc1F [N-({4-[(3-fluoro-4-methoxybenzene)sulfonyl]phenyl}methyl)-1H-pyrrolo[3,2-c]pyridine-2-carboxamide]	5	4	–	–
CNS(=O)(=O)c1ccccc1S(=O)(=O)c1ccc(CNC(=O)c2cnc3nccn3c2)cc1	–	–	1000 to 10000	30.4
O=C(NCc1ccc(S(=O)(=O)c2cccc(OCCN3CCOCC3)c2)cc1)c1cnc2nccn2c1	–	–	24.7	3.1
COc1cccc(S(=O)(=O)c2ccc(CNC(=O)c3cc4ccncc4o3)cc2)c1OC	9.3	–	13.6	–
O=C(NCc1ccc(S(=O)(=O)c2cccc3c2Oc2ccccc2S3)cc1)c1cc2ccncc2o1 [N-{[4-(phenoxathiine-4-sulfonyl)phenyl]methyl}furo[2,3-c]pyridine-2-carboxamide]	–	–	13.1	5.6
Cc1ccncc1S(=O)(=O)c1ccc(CNC(=O)c2cc3cnccc3[nH]2)cc1 [N-{[4-(4-methylpyridine-3-sulfonyl)phenyl]methyl}-1H-pyrrolo[3,2-c]pyridine-2-carboxamide]	–	–	25.8	260
CNS(=O)(=O)c1ccccc1S(=O)(=O)c1ccc(CNC(=O)c2cc3cnccc3[nH]2)cc1 [N-[(4-{[2-(methylsulfamoyl)benzene]sulfonyl}phenyl)methyl]-1H-pyrrolo[3,2-c]pyridine-2-carboxamide]	76	202	–	–
Cc1cc(S(=O)(=O)c2ccc(CNC(=O)c3cnc4nccn4c3)cc2)ccc1F	2.2	–	9.6	–
Cc1c(F)cccc1S(=O)(=O)c1ccc(CNC(=O)c2cnc3nccn3c2)cc1	8.1	–	65.6	–
COc1cc(S(=O)(=O)c2ccc(CNC(=O)c3cnc4[nH]ncc4c3)cc2)ccc1Cl	12.7	–	13	–
CC(C)NC(=O)c1cccc(S(=O)(=O)c2ccc(CNC(=O)c3cc4ccncc4o3)cc2)c1	–	–	15.7	15.1
Cc1ncccc1S(=O)(=O)c1ccc(CNC(=O)c2cnc3[nH]ncc3c2)cc1 [N-{[4-(2-methylpyridine-3-sulfonyl)phenyl]methyl}-1H-pyrazolo[3,4-b]pyridine-5-carboxamide]	–	–	136	105
Cc1ccc(S(=O)(=O)c2ccc(CNC(=O)c3cc4ccncc4s3)cc2)cc1F [N-({4-[(3-fluoro-4-methylbenzene)sulfonyl]phenyl}methyl)thieno[2,3-c]pyridine-2-carboxamide]	3	2.8	–	–
CCCCOc1ccc(S(=O)(=O)c2ccc(CNC(=O)c3cc4ccncc4o3)cc2)c(C)c1	16	–	64.8	–

Compound	IC50 (NAMPT; NAMPT enzymatic reaction) [nM]	IC50 (A2780 cells; SRB assay) [nM]	IC50 (A2780 cells; SRB) [nM]	IC50 (NAMPT; NAMPT enzymatic assay) [nM]
O=C(NCc1ccc(S(=O)(=O)c2cc(F)ccc2CO)cc1)c1cnc2nccn2c1	–	–	100 to 1000	12.9
O=C(NCc1ccc(S(=O)(=O)c2cc(C(F)(F)F)ccc2Cl)cc1)c1cc2ccncc2o1	–	–	14.1	13.9
COc1ccc(S(=O)(=O)c2ccc(CNC(=O)c3cc4ccncc4o3)cc2)cc1F	2.2	–	6.8	–
O=C(NCc1ccc(S(=O)(=O)c2cc(F)ccc2CO)cc1)c1cc2ccncc2s1	–	–	24.9	7.7
CC(C)COc1ccc(S(=O)(=O)c2ccc(CNC(=O)c3cnc4nccn4c3)cc2)cc1	–	–	5.2	5.5
O=C(NCc1ccc(S(=O)(=O)c2ccccc2)cc1)N1CCc2ncncc2C1 [N-{[4-(benzenesulfonyl)phenyl]methyl}-5H,6H,7H,8H-pyrido[4,3-d]pyrimidine-6-carboxamide]	> 2000	> 2000	–	–
O=C(NCc1ccc(S(=O)(=O)c2cccc(N3CCCC3)c2)cc1)c1ccc2nccn2c1	–	–	1.6	13.6
COc1cc(C)cc(S(=O)(=O)c2ccc(CNC(=O)c3cnc4nccn4c3)cc2)c1OC	4.2	–	15.6	–
O=C(NCC1CCN(S(=O)(=O)c2ccccc2)CC1)c1cc2cnccc2[nH]1 [N-{[1-(benzenesulfonyl)piperidin-4-yl]methyl}-1H-pyrrolo[3,2-c]pyridine-2-carboxamide]	15	9	–	–
Cc1ccc(F)c(S(=O)(=O)c2ccc(CNC(=O)c3cc4cnccc4[nH]3)cc2)c1 [N-({4-[(2-fluoro-5-methylbenzene)sulfonyl]phenyl}methyl)-1H-pyrrolo[3,2-c]pyridine-2-carboxamide]	25	24	–	–
NS(=O)(=O)c1cccc(S(=O)(=O)c2ccc(CNC(=O)c3ccc4nccn4c3)cc2)c1	10.3	–	54.6	–
O=C(NCc1ccc(S(=O)(=O)c2cc(C(F)(F)F)ccc2Cl)cc1)c1cnc2nccn2c1	–	–	14.1	7
O=C(NCc1ccc(S(=O)(=O)c2cnc3ccccc3c2)cc1)c1cnc2[nH]ncc2c1 [N-{[4-(quinoline-3-sulfonyl)phenyl]methyl}-1H-pyrazolo[3,4-b]pyridine-5-carboxamide]	–	–	4.4	5.2
O=C(NCc1ccc(S(=O)(=O)c2ccc(-n3cccn3)cc2F)cc1)c1cc2ccncc2o1	–	–	8	18.4
Cc1cc(Cl)ccc1S(=O)(=O)c1ccc(CNC(=O)c2cc3cnccc3[nH]2)cc1 [N-({4-[(4-chloro-2-methylbenzene)sulfonyl]phenyl}methyl)-1H-pyrrolo[3,2-c]pyridine-2-carboxamide]	27	25	–	–
O=C(NCc1ccc(S(=O)(=O)c2cc(F)cc(Cl)c2)cc1)c1cnc2nccn2c1	2.4	–	2.9	–
COc1ccc(Cl)c(S(=O)(=O)c2ccc(CNC(=O)c3ccc4nccn4c3)cc2)c1	5.6	–	2.7	–
O=C(NCc1ccc(S(=O)(=O)c2ccccn2)cc1)c1cc2ccncc2o1 [N-{[4-(pyridine-2-sulfonyl)phenyl]methyl}furo[2,3-c]pyridine-2-carboxamide]	–	–	87	55.1
CCOCc1ccc(S(=O)(=O)c2ccc(CNC(=O)c3cc4ccncc4o3)cc2)cc1	–	–	6.6	4.9
Cc1ccc(Cl)c(S(=O)(=O)c2ccc(CNC(=O)c3cc4ccncc4s3)cc2)c1Cl [N-({4-[(2,6-dichloro-3-methylbenzene)sulfonyl]phenyl}methyl)thieno[2,3-c]pyridine-2-carboxamide]	4.4	–	8.2	–
O=C(NCc1ccc(S(=O)(=O)c2ccc(Cl)cc2C(F)(F)F)cc1)c1ccc2nccn2c1	–	–	8.5	19.8
O=C(NCc1ccc(S(=O)(=O)c2ccc(Cl)c(C(F)(F)F)c2)cc1)c1cnc2nccn2c1	–	–	4.3	2.8
COc1cccc(Cl)c1S(=O)(=O)c1ccc(CNC(=O)c2cc3ccncc3s2)cc1	2.7	–	2.9	–
CC(=O)c1cccc(S(=O)(=O)c2ccc(CNC(=O)c3cnc4[nH]ncc4c3)cc2)c1	10	–	12.9	–
Cc1ccccc1S(=O)(=O)c1ccc(CNC(=O)c2ccc3nccn3c2)cc1 [N-({4-[(2-methylbenzene)sulfonyl]phenyl}methyl)imidazo[1,2-a]pyridine-6-carboxamide]	66.9	–	91.2	–
